# System: fundic mucosa
# Assay: Immunohistochemistry / immunofluorescence of stomachs of DMP-777-treated mice
# Assay type: in vivo, gastrin-deficient mice
# Description: Excised stomachs from Gastrin-deficient mice treated with DMP-777 or untreated controls embedded in paraffin were used for immunohistochemistry analysis Stomachs from C57BL/6 wild-type mice and sections from H. felis-infected C57BL/6 mice (infected for 6 months) were also examined with staining as a comparison. For immunohistochemistry, except for Mist1 staining, deparaffinized sections were pretreated with antigen retrieval using Target Retrieval solution (DakoCytomation, Glostrup, Denmark) at 120° C. for 15 minutes, followed by immediate cooling using iced water. For immunohistochemistry of Mist1, Trilogy antigen retrieval solution (Cell Marque, Austin. Tex.) was used during the antigen retrieval procedure. Sections were treated with 2% blocking serum and then incubated with the primary antibody overnight at 4° C. Immunostaining was performed with the following primary antibodies; murine monoclonal immunoglobulin M (IgM) anti-trefoil factor family 2 (TFF2, a gift from Sir Nicholas Wright, Cancer Research UK; 1:1000); rabbit anti-Mist1 (1:2000); murine monoclonal anti-H/K-ATPase (a gift from Dr. Adam J. Smolka, Medical University of South Carolina; 1:100,000); rabbit anti-HE4 (1:2000); rabbit anti-intrinsic factor (a gift from Dr. David Alpers, Washington University, St. Louis; 1:2000);, goat anti-Intrinsic factor (1:2000): rabbit anti-MCM3 (1:2000); rat monoclonal anti-Ki67 (TEC-3, DakoCytomation; 1:200).
# For immunofluorescence analysis, Cy3-goat anti-mouse IgM antibody, Cy5-goat anti-mouse IgG antibody (Jackson ImmunoResearch, West Grove, Pa.) and Alexa488 goat anti-rabbit IgG (Invitrogen, Carlsbad, Calif.) were used. PROLONG® Gold Antifade Reagent with DAPI (Invitrogen) was used for nuclear counterstain and mounting medium.
# For immunohistochemistry with detection with diaminobenzidine, the sections were incubated with biotinylated secondary antibody followed by horseradish peroxidase-conjugated streptavidin. Chromogen was developed with diaminobenzidine (Biogenex, San Ramon, Calif.). For immunohistochemistry with alkaline-phosphatase detection, the sections were incubated with biotinylated secondary antibody followed by alkaline-phosphatase-conjugated avidin-biotin complex. Chromogen was developed with VECTOR® Red Substrate (Vector Laboratories, Burlingame, Calif.). All sections were counterstained with Gill's hematoxylin.
# Sections were viewed and photographed on Zeiss AXIOPHOT® microscope equipped with an AXIOVISION® digital imaging system (Zeiss) or FLUOVIEW® FV1000 confocal microscope system (Olympus).
smiles,measurement,setting,value
CCC[C@@H](NC(=O)N1C(=O)C(CC)(CC)[C@@H]1Oc1ccc(C(=O)N2CCN(C)CC2)cc1)c1ccc2c(c1)OCO2 [DMP-777],quantification of Ki-67 staining (FIG. 6F),"1 to 14 days of treatment, *p<0.05 at 7 days","smaller increase, which was only significant at 7 days of treatment"
same,HE4 expression in SPEM cells at the bases of fundic glands (immunostaining),DMP-777 treated gastrin-deficient mice,prominent up-regulation
same,TACC3 expression in cells at the bases of gastric glands,after only one day of DMP-777 treatment,TACC3 expression was evident
same,HE4 immunoreactivity in SPEM,after only one day of treatment,markedly increased
same,quantification of MCM3 staining (FIG. 6F),"days 3-14 of treatment, **p<0.01, ***p<0.001",significant increase
same,TFF2 and intrinsic factor staining in cells at the bases of fundic glands,gastrin deficient mice treated for 3 days with DMP-777,SPEM cells expressing two separate populations of TFF2 and intrinsic factor staining granules were present
same,Ki67 positive cell numbers,gastrin-deficient mice after DMP-777 treatment,only a small increase
same,number of Mist1 immunoreactive cells at the bases of glands,gastrin-deficient mice treated with DMP-777 for three days,decreased
same,number of MCM3 positive cells,"gastrin-deficient mice, after 1 day of DMP-777, remained elevated through 14 days",increased
same,TACC3 expression in SPEM cells at the bases of fundic glands,treatment with DMP-777 for 3 days,strongly up-regulated

# — patent US7811778B2, “Methods of screening for gastrointestinal cancer” (Vanderbilt University, priority 2006, dated 2010)
